Measurements reported in EP0335545B2, “Pharmaceutical formulations for parenteral use” (UNIVERSITY OF FLORIDA, priority 1988, dated 1989).
In brackets after ≈: the same amount, converted by molar mass.

Assays:
physchem = type: physicochemical
Procedure: The retention time was 5.2 min. Other compounds were assayed spectrophotometrically.

[1] = Lung and brain concentrations in male rats after i.v. E2-CDS in DMSO or as HPCD complex (HPLC with pre-column enrichment); type: in vivo, Sprague-Dawley rats
From the text: The loss of sensitivity resulting from the dilution step in the procedure optimal for pretreatment of biological samples (see sample preparation without extraction) could be compensated for by developing an HPLC system that allows injection of large volumes. A suitable HPLC-method which has been described in the literature [Roth et al, J. Chromatogr. 222: 13-22 (1981)] is based on alternating pre-column sample enrichment. The procedure used herein was as follows: The sample containing the drug is injected with a first pump A, delivering pure water, onto one of two pre-columns, which are alternatingly connected with the injection system by two pneumatically driven valves. Provided a certain lipophilicity, the drug is retained and concentrated on the pre-column, while accompanying water soluble-co-products like proteins are being washed out as long as water is pumped through the pre-column. This allows the direct injection of body fluids. After a certain enrichment time (6 and 8 minutes), simultaneous rotation of the two valves is induced, causing pre-column 1, where the injected drug has been absorbed, to be switched to the solvent stream of the second pump, B. Also, at this point, the recording integrator is started. Pump B delivers the mobile phase, necessary for separation and chromatography, and backflushes the sample from pre-column 1 onto the analytical column. Parallel to this process, pre-column 2 is switched to the water stream of pump A so that a sample can be injected and enriched while the previous one is being eluted (alternating mode). Volumes up to 1800 µL can be injected due to the concentration effect of the enrichment phase.
This system was applicable to the quantification of E2, E2-CDS and E2-Quat. The mobile phase for E2-CDS was: Acetonitrile/water 80:20 at a flow rate of 1.8 mL/minute. Optimal peak shape and retention time for E2 and E2-Ouat were obtained with pump B delivering a mixture of acetonitrile/water 42:58 which contained 0.025 M/L sodium salt of 1-octanesulfonic acid and 0.003 M/L tetrabutylammonium phosphate. […]

[2] = 15 mg/kg in DMSO relative to 5 mg/kg as complex with HPCD in water, i.v., within the first hour

CN1C=CCC(C(=O)O[C@H]2CC[C@H]3[C@@H]4CCc5cc(O)ccc5[C@H]4CC[C@]23C)=C1 [Example E2-CDS, 3-Hydroxy-17β-[(1-methyl-1,4-dihydropyridin-3-yl)carbonyl]oxyestra-1,3,5(10)-triene]
increase in incorporation with the lower ASDS material (physchem): 15%
increase in solubility over the solubility in water (physchem): 150,000 fold
slope of millimolarity of E2-CDS solubilized versus millimolarity of HPCD added (estimation of bulk stability of the complex) (physchem): 0.2
solubility (physchem; 10 mm aqueous β-cyclodextrin, Maximum Solubility): 27 µg/mL (≈ 68.6 µM)
solubility (physchem; 10 mm aqueous γ-cyclodextrin, Maximum Solubility): 22 µg/mL (≈ 55.9 µM)
solubility (physchem; 50 mm aqueous α-cyclodextrin, Maximum Solubility): 5 µg/mL (≈ 12.7 µM)
solubility (physchem; 62.5% w/v aqueous hpcd, Maximum Solubility): 30200 µg/mL (≈ 76700 µM)
solubility (physchem; water, Maximum Solubility (solubility of E2-CDS in water)): 0.2 µg/mL (≈ 0.508 µM)
solubility (physchem; water, water solubility): 0.2 µg/mL (≈ 0.508 µM)
initial lung concentrations of E2-CDS, corrected for dose [1, 2]: more than ten-fold
initial lung concentrations of E2-Quat, corrected for dose [1, 2]: more than ten-fold
brain levels of E2-Quat, corrected for dose ([1]; after 1 hour, HPCD complex in water compared to DMSO): not significantly different
